In PubChem BioAssay AID179 (DTP/NCI, 2004) one finds EC50, IC50 and outcome data, which are given here for 69 compounds.

One may read the EC50 as the concentration that produces a half-maximal response. In general, IC50 refers to the midpoint of a concentration-inhibition curve. High values mean lower potency, low ones higher potency.

The test system of the experiment is CEM cells HIV-1 protection, formazan growth assay. The experiment is described as follows: NCI AIDS Antiviral Assay. The conditions noted are these: for IC50: measured here: growth of uninfected CEM cells. An outline of the steps:
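Steps: treat uninfected and HIV-1-infected human CEM cells at five drug levels; quantify growth by soluble formazan; retest any compound reaching 50% protection; classify actives from the retest.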

Several values for one entry are separate records, joined by “and”; a condition that tells them apart may be missing. Identical values can stand only once. Activity calls are given as the source filed them.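 The calls were made as follows: active = compounds giving half or more protection of infected cells from virus-caused growth loss, again on retest; inactive = the rest.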

On to `COc1ccc(N2C(=O)C(C#N)=C(SC)C(C#N)C2=O)cc1` (configuration not stated), for which the EC50 was above 200 µM and the IC50 was 174 µM. As for `O=C(NNC(=O)c1nsc2ccccc12)c1ccc(Cl)cc1`, the EC50 was above 8.13 µM and the IC50 was above 8.13 µM. Regarding `CCn1cc2c(=O)n3ncn(-c4ccc(Br)cc4)c3nc2n1`, the result was inactive. Consider `CC(=O)c1cccc(NC(=O)C(=O)C(C(=O)c2ccccc2F)C2OC(=O)c3ccccc32)c1` (configuration not stated), for which the EC50 was above 389 µM and the IC50 stood at 15.8 µM. For `Cc1ccc(Cc2n[nH]c(=O)n2/N=C\CC/C=N\n2c(Cc3ccc(C)cc3)n[nH]c2=O)cc1`, in that order: above 200 µM and 120 µM. In the case of `CCOC(=O)c1c(Br)c(-c2ccc(OC)cc2)c(Br)n1C`, the EC50 is above 200 µM and the IC50 turned out to be 12.6 µM. The matching figures for `COC(=O)C(Cc1nc2ccccc2[nH]c1=O)C(=O)C(=O)Nc1cc(C(F)(F)F)ccc1Cl` (configuration not stated): above 74.1 µM and 7.41 µM. `O=C(CNc1ccc2c(=S)c3ccccc3[nH]c2c1)Nc1ccccc1-c1ccccc1NC(=O)CNc1ccc2c(=S)c3ccccc3[nH]c2c1`: the EC50 was above 13.8 µM and the IC50 came out at 4.47 µM.

On to `CC1C2c3ccccc3C(c3ccccc32)C1CN1C(CCO)COC1c1ccccc1` (configuration not stated), for which the EC50 is above 200 µM and the IC50 is 38 µM. With `COC(=O)c1ccc(OCc2ccc3nc(-c4ccccc4)c(Cl)nc3c2)cc1`, the EC50 is above 200 µM and the IC50 is above 200 µM. For the compound `CC(=O)NC(CCCNC(=O)NCCCl)C(=O)NCc1ccccc1` (configuration not stated), the EC50 is above 676 µM and the IC50 was above 676 µM.

Turning to `CC(C)CCCC(C)[C@H]1CC[C@H]2[C@@H]3CC[C@H]4C[C@@H](CCC=C(c5cc(Cl)c(OCc6ccccc6[N+](=O)[O-])c(C(=O)O)c5)c5cc(Cl)c(OCc6ccccc6[N+](=O)[O-])c(C(=O)O)c5)CC[C@]4(C)[C@H]3CC[C@]12C` (some centres not stated), the EC50 is > 200 µM and 120 µM; the result was inactive; the IC50 was > 200 µM and 166 µM.

Take `CN(C)NC(=O)NC12CC3CC(CC(C3)C1)C2`: the result was inactive.

Turning to `O=C(O)C(Cc1ccc2c(c1)CCC2)(Cc1ccc2c(c1)CCC2)C(=O)O`, the EC50 was above 200 µM and the IC50 was above 200 µM. For `CNc1ccc(/C=C/c2ccnc3ccccc23)cc1`, the EC50 was above 200 µM and the IC50 amounted to 6.31 µM. In the case of `C[N+](C)(C)CC(=O)N/N=C(/Cc1cc(=O)oc2cc(O)ccc12)C(=O)Nc1ccc(Cl)cc1`, the EC50 was above 51.3 µM and the IC50 is above 51.3 µM. Regarding `O=C(c1ccco1)N(C(=S)N1CCN(c2ccccn2)CC1)c1ccccc1`, the EC50 was above 47.9 µM and the IC50 came out at 46.8 µM.

In the case of `Cc1ccc(SC2C(C)(C)N(C(C)C)P2(=O)N(C(C)C)C(C)C)cc1` (configuration not stated), the EC50 is above 9.77 µM and the IC50 is above 9.77 µM. In the case of `CCOC(=O)CC1(C)SCCN1C(=O)OCC` (configuration not stated), the EC50 was above 200 µM and the IC50 was above 200 µM. As to `CCN(/C=C1/C(=O)C(c2ccccc2)N(c2ccccc2)C1=O)CC` (configuration not stated), the EC50 is above 200 µM and the IC50 is above 200 µM. `Fc1ccc(N=NN2CCCC2)cc1`: the EC50 is above 200 µM and the IC50 worked out at 123 µM. Turning to `Cc1cc(=O)oc2cc(NCS(=O)(=O)O)ccc12`, the EC50 is above 617 µM and the IC50 is above 617 µM. As for `O=C(O)c1ccc2c(c1)CC1(C2)Cc2ccccc2C1=O` (configuration not stated), the EC50 is above 200 µM and the IC50 was above 200 µM. With `CC(=O)NC1c2ccccc2C(C)(C)C12CCC1(CC2)OCCO1` (configuration not stated), the EC50 is above 200 µM and the IC50 was above 200 µM. Take `Oc1cc(Br)cc2cc(Cl)cnc12`: the EC50 was above 200 µM and the IC50 stood at 1.02 µM. Take `C/C(=N\NC(=S)N1CCCCCC1)c1ccccn1`: the EC50 is above 49 µM and the IC50 is 0.0372 µM.

Regarding `Cc1cn(C2CC(N(O)C(N)=O)C(CO)O2)c(=O)[nH]c1=O` (configuration not stated), the EC50 is above 200 µM; the IC50 was > 200 µM and 107 µM. On to `CC1Sc2ccccc2-c2[nH]c3ccccc3c21` (configuration not stated), for which the EC50 is above 200 µM and the IC50 amounted to 10.2 µM. `CCOC(=O)CO/N=C\C1=CC(=O)C2CC1C2(C)C` (configuration not stated): the EC50 was above 200 µM and the IC50 was above 200 µM. Regarding `O=C1/C(=C/c2ccc(F)cc2)CCc2ccccc21`, the EC50 is above 10.7 µM and the IC50 is above 10.7 µM. For the compound `CC(C)(CN1CCCCC1)C(=O)CC(SCCN)c1ccc(Cl)cc1` (configuration not stated), the EC50 is above 234 µM and the IC50 worked out at 12.6 µM. With `Cc1cccc(-c2nc3ccc([N+](=O)[O-])cc3c(=O)o2)c1`, the EC50 was above 200 µM and the IC50 amounted to 30.9 µM. The matching figures for `C(=N\OCc1ccccc1)/c1ncccc1C1OCCO1`: above 331 µM and 309 µM. As for `CC1=C(c2cc(C(=O)Nc3ccc(Cl)cc3)nc(=S)[nH]2)Sc2ccccc2N1`, the EC50 is above 85.1 µM and the IC50 was above 85.1 µM.

In the case of `Cc1nc2ccc(NC3OCC(O)C(O)C3O)cc2c(=O)n1-c1ccccc1` (configuration not stated), the EC50 was above 200 µM and the IC50 amounted to 115 µM. For `COc1ccc(N=C2C(=Nc3ccc(OC)cc3)N(c3ccc(N(C)C)cc3)C(=S)N2c2ccc(OC)cc2)cc1`, the EC50 was above 20 µM and the IC50 amounted to 0.692 µM. The matching figures for `COc1cccc2c1C(=O)C1(O)CCCCC21` (configuration not stated): 44.7 µM and above 200 µM. `Nc1ncnc2c1ncn2C1OC(COC2C(O)C(OC3OC(CO)C(O)C(O)C3N)C(O)C(OS(=O)(=O)O)C2OC(=O)[C@@H](N)CO)C(O)C1O` (some centres not stated): the EC50 is above 200 µM and the IC50 is above 200 µM.

With `Cc1cc(NC(=O)c2ccc(N)cc2)ccc1N=Nc1ccc2c(O)c(N=Nc3ccc4cc(S(=O)(=O)O)ccc4c3)c(S(=O)(=O)O)cc2c1`, the EC50 was 25.1 µM and the IC50 was above 100 µM. In the case of `COc1ccc(C2CC(=O)c3c(cc(OC)c(O)c3OC)O2)cc1` (configuration not stated), the EC50 was above 200 µM and the IC50 turned out to be 32.4 µM. Regarding `O=[N+]([O-])c1ccc(C=Cc2ccc(C(F)(F)F)cc2)cc1.[C-]#[O+].[C-]#[O+].[C-]#[O+].[Cr]`, the result was inactive. Regarding `N#Cc1ccc(OCc2ccc3nc(-c4ccccc4)c(Cl)nc3c2)cc1`, the EC50 is above 100 µM and the IC50 is above 100 µM. As for `CC1=C(C(=O)Nc2ccccc2C)C(c2ccccc2C)C(C(=O)Nc2ccccc2C)=C(C)N1`, the EC50 is above 15.5 µM and the IC50 was above 15.5 µM. Turning to `Cc1cc(NS(=O)(=O)c2ccc(NC(=O)c3cccc4c(N)c5ccccc5nc34)cc2)no1`, the EC50 was above 93.3 µM and the IC50 is 43.7 µM. The matching figures for `N#Cc1c(N)[nH]c(=S)c(C#N)c1-c1ccccc1`: above 200 µM and 135 µM. Turning to `COC1=C(C(=O)O)P(C)(=O)CC1` (configuration not stated), the EC50 was above 214 µM and the IC50 was above 214 µM. For the compound `Cn1c2ccccc2c(=NNc2ccc(S(N)(=O)=O)cc2)c2ccccc21`, the EC50 was above 200 µM and the IC50 came out at 17.4 µM. On to `COc1ccc(/C=C\c2cc(OC)c(OC)c(OC)c2)cc1OC(=O)C(N)CCC(=O)O` (configuration not stated), for which the EC50 is above 447 µM. Turning to `NC1=NNC2(C(N)=N1)c1ccccc1-c1ccccc12`, the EC50 is above 200 µM and the IC50 came out at 51.3 µM.

Turning to `O=C(Nc1ccccc1Cl)c1cc2cc(N=Nc3ccc(Br)cc3)ccc2oc1=O`, the result was inactive.

For the compound `O=C(O)C(=O)O`, the EC50 is above 427 µM and the IC50 was above 427 µM. Turning to `O=C1C(Cl)N(c2cccc(Cl)c2)C1c1c[nH]c2ccccc12` (configuration not stated), the EC50 was above 282 µM and the IC50 stood at 102 µM. Regarding `CCOC(=O)/C(C#N)=C\Sc1ccccc1`, the result was inactive.

Consider `Cn1/c(=N\S(=O)(=O)c2ccccc2)n(S(=O)(=O)c2ccccc2)c2ccccc21`, for which the EC50 was above 200 µM and the IC50 was above 200 µM. Take `c1ccc2c(c1)Cc1ccccc1-c1c-2[nH]c2ccccc12`: the EC50 is above 200 µM and the IC50 worked out at 10.5 µM. As for `C[CH2][Sn]([Cl])([CH2]C)[CH2]C`, the result was inactive. As to `Cc1cc(S(=O)(=O)n2cc[nH]c2=O)c(S)cc1Cl`, the EC50 is above 200 µM and the IC50 was above 200 µM. On to `N#CCCC1(CCC#N)S(=O)(=O)OCCOS1(=O)=O`, for which the EC50 was above 200 µM and the IC50 is 44.7 µM. In the case of `O=C(O)CCCc1cc2c(s1)-c1cccc3cccc-2c13`, the EC50 is above 33.9 µM and the IC50 is above 33.9 µM.

Consider `CC(=O)[C@H]1[C@H](O)C[C@@]2(C)[C@@H]3CCc4cc(O)c(OC5OC(CO)C(O)C(O)C5O)cc4C3(C)C(=O)C[C@]12C` (some centres not stated), for which the EC50 is above 200 µM and the IC50 was above 200 µM. In the case of `N#C/C(=C\c1c(O)ccc2ccccc12)c1ccc([N+](=O)[O-])cc1`, the EC50 is above 100 µM and the IC50 was above 100 µM.

For `Cc1ccc(NC(=O)/C(CC(=O)c2c[n+](=O)c3ccccc3n2O)=N\NC(=O)C[n+]2ccccc2)cc1`, the EC50 is above 43.7 µM and the IC50 was above 43.7 µM. For `O/N=C1\CC(c2ccccc2)Oc2ccccc21` (configuration not stated), the EC50 was above 200 µM and the IC50 came out at 126 µM. Turning to `Cc1cccc(Nc2cn(CCOc3ccccc3)c(=O)[nH]c2=O)c1`, the EC50 is above 200 µM and the IC50 came out at 27.5 µM.

Regarding `COc1ccc(C2N(c3ccc(C)c(N=C=O)c3)C(=O)N3C(c4ccc(OC)cc4)N(c4ccc(C)c(N=C=O)c4)C(=O)N23)cc1` (configuration not stated), the EC50 is above 200 µM and the IC50 was 12.6 µM. Consider `CCC12CCCN(C1)C(=O)Cc1c([nH]c3ccccc13)C(=O)C2` (configuration not stated), for which the EC50 was above 8.13 µM and the IC50 is above 8.13 µM. With `O=C(Sc1nnnn1-c1ccccc1)Sc1nnnn1-c1ccccc1`, the EC50 is 97.7 µM and the IC50 stood at 178 µM.

For the compound `C/C(CC(=O)Nc1cccc([N+](=O)[O-])c1)=N\NC(=O)CC#N`, the EC50 is above 832 µM and the IC50 turned out to be 447 µM. As for `Cc1[nH]c2c(C)c3c([nH]c4ccc(Cl)cc43)c(C)c2c(=O)c1C`, the EC50 is above 17 µM and the IC50 was 9.77 µM.
